# Reference: US9636418B2 (priority 2013, dated 2017)
# How the values were obtained:
# Experiment in all cases: cell-based
# [1] = target: hNav1.4 (Homo sapiens, UniProt P35499); details: for IC50: IonWorks Quattro, read-out: IC50 Nav1.4
# [2] = target: hNav1.5 (Homo sapiens, UniProt Q14524); details: IonWorks Quattro; read-out: IC50 Nav1.5
# [3] = target: hNav1.7 (Homo sapiens, UniProt Q15858); details: IonWorks Quattro; read-out: IC50 Nav1.7
# [4] = target: hNav1.3 (Homo sapiens, UniProt Q9NY46); details: IonWorks Quattro; read-out: IC50 Nav1.3
# Sequence of hNav1.3 (Q9NY46 whole entry): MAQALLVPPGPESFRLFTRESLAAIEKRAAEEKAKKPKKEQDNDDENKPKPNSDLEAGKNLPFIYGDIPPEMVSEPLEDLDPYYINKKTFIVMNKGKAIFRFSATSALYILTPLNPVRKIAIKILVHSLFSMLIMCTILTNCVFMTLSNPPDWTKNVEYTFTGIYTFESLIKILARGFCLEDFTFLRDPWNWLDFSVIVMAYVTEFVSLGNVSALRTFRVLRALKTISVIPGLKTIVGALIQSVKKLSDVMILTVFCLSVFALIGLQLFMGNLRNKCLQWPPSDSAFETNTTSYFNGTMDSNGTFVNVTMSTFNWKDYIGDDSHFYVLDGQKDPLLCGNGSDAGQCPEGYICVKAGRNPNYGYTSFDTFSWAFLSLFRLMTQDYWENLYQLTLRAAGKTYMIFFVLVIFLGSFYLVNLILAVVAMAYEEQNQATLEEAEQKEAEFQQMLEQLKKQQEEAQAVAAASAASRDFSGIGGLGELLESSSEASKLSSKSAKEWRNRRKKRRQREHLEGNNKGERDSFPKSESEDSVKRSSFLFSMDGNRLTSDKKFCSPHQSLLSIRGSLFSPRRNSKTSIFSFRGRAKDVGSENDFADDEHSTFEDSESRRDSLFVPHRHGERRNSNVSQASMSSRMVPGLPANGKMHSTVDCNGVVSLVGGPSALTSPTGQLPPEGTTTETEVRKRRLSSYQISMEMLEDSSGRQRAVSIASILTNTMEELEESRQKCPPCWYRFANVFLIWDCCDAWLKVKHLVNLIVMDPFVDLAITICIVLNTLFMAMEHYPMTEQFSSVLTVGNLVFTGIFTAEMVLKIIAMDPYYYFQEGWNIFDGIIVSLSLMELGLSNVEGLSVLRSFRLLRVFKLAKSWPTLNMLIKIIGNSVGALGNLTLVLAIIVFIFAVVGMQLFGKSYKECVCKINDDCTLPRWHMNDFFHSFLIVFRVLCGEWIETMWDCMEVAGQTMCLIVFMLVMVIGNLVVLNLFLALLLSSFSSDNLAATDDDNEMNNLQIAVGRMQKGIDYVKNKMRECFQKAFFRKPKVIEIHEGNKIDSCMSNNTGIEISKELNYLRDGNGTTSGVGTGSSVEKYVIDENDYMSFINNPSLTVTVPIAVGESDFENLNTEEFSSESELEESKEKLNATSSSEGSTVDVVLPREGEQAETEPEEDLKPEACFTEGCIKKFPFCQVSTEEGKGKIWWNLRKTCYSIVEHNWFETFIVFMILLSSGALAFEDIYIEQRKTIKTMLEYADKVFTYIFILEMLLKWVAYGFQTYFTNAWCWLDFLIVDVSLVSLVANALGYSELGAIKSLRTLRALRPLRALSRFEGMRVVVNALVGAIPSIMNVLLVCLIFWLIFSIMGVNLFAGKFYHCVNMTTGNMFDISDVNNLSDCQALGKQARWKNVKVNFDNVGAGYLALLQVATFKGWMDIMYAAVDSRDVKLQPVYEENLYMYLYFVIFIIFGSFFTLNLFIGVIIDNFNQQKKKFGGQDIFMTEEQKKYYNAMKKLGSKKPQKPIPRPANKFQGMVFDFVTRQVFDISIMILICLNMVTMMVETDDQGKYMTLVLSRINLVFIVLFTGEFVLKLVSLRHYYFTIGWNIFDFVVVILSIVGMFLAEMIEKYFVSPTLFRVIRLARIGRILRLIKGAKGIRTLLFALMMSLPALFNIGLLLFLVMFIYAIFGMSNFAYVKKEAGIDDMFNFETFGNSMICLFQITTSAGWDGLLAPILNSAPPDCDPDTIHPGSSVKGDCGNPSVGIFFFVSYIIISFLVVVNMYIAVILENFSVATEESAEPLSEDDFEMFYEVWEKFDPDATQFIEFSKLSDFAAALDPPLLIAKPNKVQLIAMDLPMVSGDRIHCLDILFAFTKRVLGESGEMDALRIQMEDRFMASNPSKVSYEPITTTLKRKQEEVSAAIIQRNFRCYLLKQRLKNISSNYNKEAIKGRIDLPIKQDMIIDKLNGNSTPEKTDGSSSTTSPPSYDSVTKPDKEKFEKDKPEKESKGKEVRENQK
# Sequence of hNav1.5 (Q14524 whole entry): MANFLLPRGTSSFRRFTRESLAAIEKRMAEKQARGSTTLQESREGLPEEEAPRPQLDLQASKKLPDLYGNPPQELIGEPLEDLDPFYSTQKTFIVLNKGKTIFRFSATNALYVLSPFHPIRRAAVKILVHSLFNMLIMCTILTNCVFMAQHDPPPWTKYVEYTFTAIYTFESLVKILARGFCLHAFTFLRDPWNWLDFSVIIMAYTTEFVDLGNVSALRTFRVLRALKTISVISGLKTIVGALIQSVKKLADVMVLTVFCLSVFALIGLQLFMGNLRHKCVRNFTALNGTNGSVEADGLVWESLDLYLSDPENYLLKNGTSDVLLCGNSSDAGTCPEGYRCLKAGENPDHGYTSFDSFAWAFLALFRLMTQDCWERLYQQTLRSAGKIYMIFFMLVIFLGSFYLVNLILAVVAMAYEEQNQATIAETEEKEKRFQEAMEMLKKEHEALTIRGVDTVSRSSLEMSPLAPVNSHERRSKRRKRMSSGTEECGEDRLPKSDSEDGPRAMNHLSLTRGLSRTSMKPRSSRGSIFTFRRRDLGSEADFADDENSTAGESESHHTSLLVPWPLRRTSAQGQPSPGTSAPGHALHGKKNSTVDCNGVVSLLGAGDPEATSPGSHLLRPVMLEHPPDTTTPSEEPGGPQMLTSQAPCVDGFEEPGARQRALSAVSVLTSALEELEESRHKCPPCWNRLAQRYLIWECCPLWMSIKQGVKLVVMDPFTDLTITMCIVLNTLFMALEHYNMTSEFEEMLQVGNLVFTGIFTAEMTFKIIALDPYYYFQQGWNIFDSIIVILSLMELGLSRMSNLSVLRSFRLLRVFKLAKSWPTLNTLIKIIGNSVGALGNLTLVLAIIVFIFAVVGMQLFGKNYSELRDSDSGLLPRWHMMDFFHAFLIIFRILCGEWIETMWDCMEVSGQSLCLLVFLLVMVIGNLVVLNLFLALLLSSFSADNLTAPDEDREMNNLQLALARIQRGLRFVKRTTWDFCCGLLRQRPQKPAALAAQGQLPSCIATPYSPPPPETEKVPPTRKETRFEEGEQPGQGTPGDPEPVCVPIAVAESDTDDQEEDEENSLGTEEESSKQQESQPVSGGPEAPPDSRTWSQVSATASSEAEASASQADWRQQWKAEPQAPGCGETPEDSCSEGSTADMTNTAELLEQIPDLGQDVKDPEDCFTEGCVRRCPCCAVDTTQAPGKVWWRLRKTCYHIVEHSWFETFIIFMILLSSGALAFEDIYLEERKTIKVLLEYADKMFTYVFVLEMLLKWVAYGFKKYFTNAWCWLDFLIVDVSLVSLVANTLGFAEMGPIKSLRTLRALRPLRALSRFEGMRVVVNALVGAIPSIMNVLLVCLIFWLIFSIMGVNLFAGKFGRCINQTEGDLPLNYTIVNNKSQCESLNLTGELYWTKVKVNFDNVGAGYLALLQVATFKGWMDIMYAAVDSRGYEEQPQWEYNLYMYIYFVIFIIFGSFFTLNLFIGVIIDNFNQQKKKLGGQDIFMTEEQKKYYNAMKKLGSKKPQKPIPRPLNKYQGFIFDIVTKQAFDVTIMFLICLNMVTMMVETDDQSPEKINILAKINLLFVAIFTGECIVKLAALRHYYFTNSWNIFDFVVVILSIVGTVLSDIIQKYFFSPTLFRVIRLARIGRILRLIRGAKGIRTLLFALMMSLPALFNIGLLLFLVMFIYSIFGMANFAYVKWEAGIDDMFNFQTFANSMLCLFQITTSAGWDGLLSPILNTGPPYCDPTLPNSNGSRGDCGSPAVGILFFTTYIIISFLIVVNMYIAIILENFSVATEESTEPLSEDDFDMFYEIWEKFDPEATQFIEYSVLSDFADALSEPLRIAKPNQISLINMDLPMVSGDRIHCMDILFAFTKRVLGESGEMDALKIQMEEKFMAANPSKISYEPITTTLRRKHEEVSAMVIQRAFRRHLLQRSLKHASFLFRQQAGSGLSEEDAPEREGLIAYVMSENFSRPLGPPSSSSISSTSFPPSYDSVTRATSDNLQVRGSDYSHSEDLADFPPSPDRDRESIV
SMILES,IC50 [1] [µM],IC50 [2] [µM],IC50 [3] [µM],IC50 [4] [µM],Nav1.4/Nav1.7 ([1]; ratio of IonWorks Quattro IC50 values)
CC[C@H](C)[C@H](NC(=O)[C@H](Cc1ccc(O)cc1)NC(=O)[C@H](CCCCN)NC(=O)[C@H](CCCNC(=N)N)NC(=O)[C@@H]1CSSC[C@@H]2NC(=O)[C@H](C)NC(=O)[C@H](CCCNC(=N)N)NC(=O)[C@H](CCCCN)NC(=O)[C@H](CO)NC(=O)[C@H](CC(=O)O)NC(=O)[C@@H]3CSSC[C@H](NC(=O)[C@H](CCC(=O)O)NC(=O)[C@H](CC(C)C)NC(=O)CNC(=O)[C@H](CCC(=O)O)NC(=O)[C@H](CSSC[C@H](NC(=O)[C@@H](N)Cc4ccc(O)cc4)C(=O)N[C@@H](CCC(N)=O)C(=O)N[C@@H](CCCCN)C(=O)N[C@@H](CCC(=O)O)C(=O)N[C@@H](CCSC)C(=O)N[C@@H](Cc4c[nH]c5ccccc45)C(=O)N[C@@H]([C@@H](C)O)C(=O)N3)NC2=O)C(=O)N[C@@H](CCCCN)C(=O)N[C@@H](CC(C)C)C(=O)N[C@@H](Cc2c[nH]c3ccccc23)C(=O)N1)C(N)=O [compound 203],> 7,> 7,> 7,> 7,
CC[C@H](C)[C@H](NC(=O)[C@H](Cc1ccc(O)cc1)NC(=O)[C@H](CCCCN)NC(=O)[C@H](CCCNC(=N)N)NC(=O)[C@@H]1CSSC[C@@H]2NC(=O)[C@H](C)NC(=O)[C@H](CCCNC(=N)N)NC(=O)[C@H](CCCCN)NC(=O)[C@H](CO)NC(=O)[C@H](CC(=O)O)NC(=O)[C@@H]3CSSC[C@H](NC(=O)[C@H](CCC(=O)O)NC(=O)[C@H](CC(C)C)NC(=O)CNC(=O)[C@H](CCC(=O)O)NC(=O)[C@H](CSSC[C@H](NC(=O)[C@@H](N)Cc4ccc(O)cc4)C(=O)N[C@@H](CCC(N)=O)C(=O)N[C@@H](CCCCN)C(=O)N[C@@H](CCCNC(N)=O)C(=O)N[C@@H](CCSC)C(=O)N[C@@H](Cc4c[nH]c5ccccc45)C(=O)N[C@@H]([C@@H](C)O)C(=O)N3)NC2=O)C(=O)N[C@@H](CCCCN)C(=O)N[C@@H](CC(C)C)C(=O)N[C@@H](Cc2c[nH]c3ccccc23)C(=O)N1)C(N)=O [compound 199],> 5,> 5,> 5,> 5,
CSCC[C@@H]1NC(=O)[C@H](Cc2c[nH]c3ccccc23)NC(=O)[C@H](CCCCN)NC(=O)[C@H](CCC(N)=O)NC(=O)[C@@H](NC(=O)[C@@H](N)Cc2ccc(O)cc2)CSSC[C@@H]2NC(=O)[C@@H]3CSSC[C@@H](C(=O)N[C@@H](CCCNC(=N)N)C(=O)N[C@@H](CCCCN)C(=O)N[C@@H](Cc4ccc(O)cc4)C(=O)N[C@@H](CO)C(N)=O)NC(=O)[C@H](Cc4c[nH]c5ccccc45)NC(=O)[C@H](CC(C)C)NC(=O)[C@H](CCCCN)NC(=O)[C@H](CSSC[C@H](NC(=O)[C@H]([C@@H](C)O)NC(=O)[C@H](Cc4c[nH]c5ccccc45)NC1=O)C(=O)N[C@@H](CC(=O)O)C(=O)N[C@@H](CO)C(=O)N[C@@H](CCCCN)C(=O)N[C@@H](CCCNC(=N)N)C(=O)N[C@@H](C)C(=O)N3)NC(=O)[C@H](CCC(=O)O)NC(=O)[C@H](CC(C)C)NC(=O)CNC(=O)[C@H](CCC(=O)O)NC2=O [compound 244],> 5,> 5,0.34,> 5,
CC[C@H](C)[C@H](NC(=O)[C@H](CCCCN)NC(=O)[C@H](CCCNC(=N)N)NC(=O)[C@@H]1CSSC[C@@H]2NC(=O)[C@H](C)NC(=O)[C@H](CCCNC(=N)N)NC(=O)[C@H](CCCCN)NC(=O)[C@H](CO)NC(=O)[C@H](CC(=O)O)NC(=O)[C@@H]3CSSC[C@H](NC(=O)[C@H](CCC(=O)O)NC(=O)[C@H](CC(C)C)NC(=O)CNC(=O)[C@H](CCC(=O)O)NC(=O)[C@H](CSSC[C@H](NC(=O)[C@@H](N)Cc4ccc(O)cc4)C(=O)N[C@@H](CCC(N)=O)C(=O)N[C@@H](CCCCN)C(=O)N[C@@H](Cc4c[nH]c5ccccc45)C(=O)N[C@@H](CCSC)C(=O)N[C@@H](Cc4c[nH]c5ccccc45)C(=O)N[C@@H]([C@@H](C)O)C(=O)N3)NC2=O)C(=O)N[C@@H](CCCCN)C(=O)N[C@@H](CC(C)C)C(=O)N[C@@H](Cc2c[nH]c3ccccc23)C(=O)N1)C(=O)N[C@H](C(=O)N[C@@H](Cc1c[nH]c2ccccc12)C(N)=O)[C@@H](C)CC [compound 113],> 5,11.1,0.17,> 5,30
